This note sets out measurements from patent publication US20240417412A1, “HETEROCYCLIC COMPOUNDS AND METHODS OF USE” (AMGEN INC., priority 2022, published 2024).

In assay [1] the target is KRAS G12D (Homo sapiens, UniProt P01116, C118A/G12D). As to the kind of experiment: KRAS G12D Coupled Nucleotide Exchange Assay. The class given is biochemical. Conditions: GDP-bound KRAS G12D/C118A, 2 hours pre-incubation, SOS-mediated nucleotide exchange, AlphaScreen. As to the method:
The assay plates were then read on a PerkinElmer EnVision Multilabel Reader, using AlphaScreen® technology, and data were analyzed using a 4-parameter logistic model to calculate IC50 values.
Background: Alpha assays give light when donor and acceptor beads are brought close together.

Assay [2] addresses KRAS G12D (Homo sapiens, UniProt P01116, G12D). As to the kind of experiment: KRAS G12D TR-FRET Assay. Conditions: His-tagged KRAS G12D, biotinylated KRPep-2d, read-out: KRAS G12D Binding IC50. The method, then: The plate was incubated for 30 minutes at room temperature. Biotinylated KRPep-2d substrate (Amgen) was diluted to 20 nM in Assay Buffer and 2 uL was added to all wells and incubated for 1 hour at room temperature. Detection Reagent (0.4 nM LANCE Eu-W1024 Anti-6×His (Perkin Elmer AD0401), 5 nM streptavidin-d2 (Cisbio 610SADLA)) was prepared in Assay Buffer, then 4 μL was added to the plate and incubated for 1 hour at room temperature.

The test system of assay [3] is p-ERK (AsPC-1 cells). As to the kind of experiment: Phospho-ERK1/2 MSD Assay. The class given is cell-based. The method, then:
Sixteen hours prior to compound treatment, AsPC-1 cells were seeded in 96-well cell culture plates at a density of 25,000 cells/well and incubated at 37° C., 5% CO2. A compound dose-response titration was diluted in growth media, added to appropriate wells of a cell culture plate, and then incubated at 37° C., 5% CO2 for 2 hours. […] Phosphorylation of ERK1/2 in compound-treated lysates was assayed using Phospho-ERK1/2 Whole Cell Lysate kits (Meso Scale Discovery K151DWD) according to the manufacturer's protocol. Assay plates were read on a Meso Scale Discovery Sector Imager 6000, and data were analyzed using a 4-parameter logistic model to calculate IC50 values.

Where [4] appears, read: Homo sapiens, ASPC1, 2 h, read-out: 2 h p-ERK (AsPC-1 cells), IC50 (μM), AsPC-1 cells, 2 hours compound treatment.
Where [5] appears, read: read-out: 2 h p-ERK (AsPC-1 cells), IC50, AsPC-1 cells, 2 hours compound treatment.

Read-outs that look alike come from different tables or passages of the source.

Sequence of KRAS G12D (Homo sapiens, UniProt P01116, G12D) (P01116 1-188 isoform P01116-2 G12D): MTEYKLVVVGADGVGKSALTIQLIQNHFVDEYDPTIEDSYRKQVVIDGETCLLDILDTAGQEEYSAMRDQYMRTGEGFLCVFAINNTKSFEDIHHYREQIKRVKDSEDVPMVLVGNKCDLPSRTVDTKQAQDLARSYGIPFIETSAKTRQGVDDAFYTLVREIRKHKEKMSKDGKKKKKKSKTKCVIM
Sequence of KRAS G12D (Homo sapiens, UniProt P01116, C118A/G12D) (P01116 1-169 isoform P01116-2 G12D/C118A): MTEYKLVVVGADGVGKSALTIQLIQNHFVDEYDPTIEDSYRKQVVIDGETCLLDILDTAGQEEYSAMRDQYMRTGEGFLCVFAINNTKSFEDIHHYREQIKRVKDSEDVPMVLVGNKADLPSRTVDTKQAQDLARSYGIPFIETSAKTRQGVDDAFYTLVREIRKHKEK

Consider `CCc1c(F)ccc2cc(O)cc(-c3ncc4c(N5CC(O)CC6(CCC6)C5)nc(OC[C@@]56CCCN5C[C@H](F)C6)nc4c3F)c12` (stereo partly drawn) [Example 1, 6-(7-(8-Ethyl-7-fluoro-3-hydroxynaphthalen-1-yl)-8-fluoro-2-(((2R,7aS)-2-fluorotetrahydro-1H-pyrrolizin-7a(5H)-yl)methoxy)pyrido[4,3-d]pyrimidin-4-yl)-6-azaspiro[3.5]nonan-8-ol], for which the results for the IC50 in assay [1], in assay [2] and in assay [3] (setting [4]) were 4 nM, 3 nM and 0.329 µM, respectively.

On to `CCc1c(F)ccc2cc(O)cc(-c3ncc4c(N5CCCC6(CCS(=N)(=O)C6)C5)nc(OC[C@@]56CCCN5C[C@H](F)C6)nc4c3F)c12` (stereo partly drawn) [Example 39, 7-(7-(8-Ethyl-7-fluoro-3-hydroxynaphthalen-1-yl)-8-fluoro-2-(((2R,7aS)-2-fluorotetrahydro-1H-pyrrolizin-7a(5H)-yl)methoxy)pyrido[4,3-d]pyrimidin-4-yl)-2-imino-216-thia-7-azaspiro[4.5]decane 2-oxide], for which the IC50 (as a rule, the point on the concentration scale where inhibition reaches its midpoint) stood at 3 nM in assay [1], 2 nM in assay [2] and 2.53 µM in assay [3] (setting [4]).

For the compound `CCc1c(F)ccc2cc(O)cc(-c3ncc4c(N5CCCC6(CC(O)C6)C5)nc(OC[C@@]56CCCN5C[C@H](F)C6)nc4c3F)c12` (single isomer, unassigned) [Example 54], the 50% inhibitory concentration (IC50) in assay [3] (setting [5]) was found to be 0.008 µM.

For `CCc1c(F)ccc2cc(O)cc(-c3ncc4c(N5CCCC6(CNC6)C5)nc(OC[C@@]56CCCN5C[C@H](F)C6)nc4c3F)c12` [Example 38, 5-Ethyl-6-fluoro-4-(8-fluoro-2-(((2R,7aS)-2-fluorotetrahydro-1H-pyrrolizin-7a(5H)-yl)methoxy)-4-(2,6-diazaspiro[3.5]nonan-6-yl)pyrido[4,3-d]pyrimidin-7-yl)naphthalen-2-ol], the values for the IC50 in assay [1] and in assay [2] were 33 nM and 31 nM, respectively.

On to `CCc1c(F)ccc2cc(O)cc(-c3ncc4c(N5CCCC6(CNC(=O)C6)C5)nc(OC[C@@]56CCCN5C[C@H](F)C6)nc4c3F)c12` (single isomer, unassigned) [Example 7], for which the IC50 in assay [1] is 8 nM; in assay [2], 3 nM.

`CCc1c(F)ccc2cc(O)cc(-c3ncc4c(N5CCCC6(CCO6)C5)nc(OC[C@@]56CCCN5C[C@H](F)C6)nc4c3F)c12` (single isomer, unassigned) [Example 21]: the half-inhibitory concentration (IC50) in assay [3] (setting [5]) worked out at 0.003 µM.

With `CCc1c(F)ccc2cc(O)cc(-c3ncc4c(N5CCCC6(COC6)C5)nc(OC[C@@]56CCCN5C[C@H](F)C6)nc4c3F)c12` [Example 20, 5-Ethyl-6-fluoro-4-(8-fluoro-2-(((2R,7aS)-2-fluorotetrahydro-1H-pyrrolizin-7a(5H)-yl)methoxy)-4-(2-oxa-6-azaspiro[3.5]nonan-6-yl)pyrido[4,3-d]pyrimidin-7-yl)naphthalen-2-ol], the values for the IC50 in assay [1] and in assay [2] were 3 nM and 2 nM, respectively.

For the compound `CCc1c(F)ccc2cc(O)cc(-c3ncc4c(N5CC(O)CC6(CC6)C5)nc(OC[C@@]56CCCN5C[C@H](F)C6)nc4c3F)c12` (single isomer, unassigned) [Example 4], the IC50 in assay [1] came out at 3 nM; in assay [2], 2 nM.

Regarding `CCc1c(F)ccc2cc(O)cc(-c3ncc4c(N5CCCC6(CCC6O)C5)nc(OC[C@@]56CCCN5C[C@H](F)C6)nc4c3F)c12` (single isomer, unassigned) [Example 48], the IC50 in assay [1] was 54 nM; in assay [2], 36 nM.

In the case of `CCc1c(F)ccc2cc(O)cc(-c3ncc4c(N5CCC6(CCCS6(=O)=O)C5)nc(OCC56CCCN5C[C@H](F)C6)nc4c3F)c12` (stereo in doubt) [Example 51, 7-(7-(8-Ethyl-7-fluoro-3-hydroxynaphthalen-1-yl)-8-fluoro-2-(((2R,7aS)-2-fluorotetrahydro-1H-pyrrolizin-7a(5H)-yl)methoxy)pyrido[4,3-d]pyrimidin-4-yl)-1-thia-7-azaspiro[4.4]nonane 1,1-dioxide], the 50% inhibitory concentration (IC50) in assay [1] was determined as 13 nM; in assay [2] it was 17 nM.

As to `CCc1c(F)ccc2cccc(-c3ncc4c(N5CCCC6(CNC(=O)O6)C5)nc(OC[C@@]56CCCN5C[C@H](F)C6)nc4c3F)c12` (single isomer, unassigned) [Example 64], the concentration for half-maximal inhibition (IC50) in assay [1] came to 129 nM; in assay [2] it was 305 nM.

Take `CCc1c(F)ccc2cccc(-c3ncc4c(N5CCCC6(CNC6=O)C5)nc(OC[C@@]56CCCN5C[C@H](F)C6)nc4c3F)c12` (stereo partly drawn) [Example 32, 6-(7-(8-Ethyl-7-fluoronaphthalen-1-yl)-8-fluoro-2-(((2R,7aS)-2-fluorotetrahydro-1H-pyrrolizin-7a(5H)-yl)methoxy)pyrido[4,3-d]pyrimidin-4-yl)-2,6-diazaspiro[3.5]nonan-1-one]: the half-maximal inhibitory concentration (IC50) in assay [1] was 5 nM; in assay [2], 4 nM.

On to `CCc1c(F)ccc2cc(O)cc(-c3ncc4c(N5CCCC6(CC(O)C6)C5)nc(OC[C@@]56CCCN5C[C@H](F)C6)nc4c3F)c12` (single isomer, unassigned) [Example 55], for which, in assay [3] (setting [5]), the 50% inhibitory concentration (IC50) is 0.078 µM.

For `CCc1c(F)ccc2cc(O)cc(-c3ncc4c(N5CCCC6(CCNC6=O)C5)nc(OC[C@@]56CCCN5C[C@H](F)C6)nc4c3F)c12` (stereo partly drawn) [Example 47, 7-(7-(8-Ethyl-7-fluoro-3-hydroxynaphthalen-1-yl)-8-fluoro-2-(((2R,7aS)-2-fluorotetrahydro-1H-pyrrolizin-7a(5H)-yl)methoxy)pyrido[4,3-d]pyrimidin-4-yl)-2,7-diazaspir[4.5]decan-1-one], the concentration for half-maximal inhibition (IC50) in assay [1] amounted to 24 nM; in assay [2], 51 nM.

Turning to `CCc1c(F)ccc2cc(O)cc(-c3ncc4c(N5CCCC6(CCO6)C5)nc(OC[C@@]56CCCN5C[C@H](F)C6)nc4c3F)c12` (single isomer, unassigned) [Example 22], the IC50 in assay [3] (setting [5]) is 0.252 µM.

`CCc1c(F)ccc2cc(O)cc(-c3ncc4c(N5CCCC6(CCC(=O)O6)C5)nc(OC[C@@]56CCCN5C[C@H](F)C6)nc4c3F)c12` (single isomer, unassigned) [Example 65]: the figures for the 50% inhibitory concentration (IC50) in assay [1] and in assay [2] were 42 nM and 74 nM, respectively.

Take `CCc1c(F)ccc2cc(O)cc(-c3ncc4c(N5CCCC6(CCO6)C5)nc(OC[C@@]56CCCN5C[C@H](F)C6)nc4c3C)c12` (single isomer, unassigned) [Example 62]: the IC50 was 42 nM in assay [1] and 68 nM in assay [2].

Regarding `CCc1c(F)ccc2cc(O)cc(-c3ncc4c(N5CCCC6(C5)CN(S(C)(=O)=O)C6)nc(OC[C@@]56CCCN5C[C@H](F)C6)nc4c3F)c12` [Example 52, 5-Ethyl-6-fluoro-4-(8-fluoro-2-(((2R,7aS)-2-fluorotetrahydro-1H-pyrrolizin-7a(5H)-yl)methoxy)-4-(2-(methylsulfonyl)-2,6-diazaspiro[3.5]nonan-6-yl)pyrido[4,3-d]pyrimidin-7-yl)naphthalen-2-ol], the IC50 in assay [1] and in assay [2] was 6 nM each time.

Take `CCc1c(F)ccc2cc(O)cc(-c3ncc4c(N5CCCC6(CCS6(=O)=O)C5)nc(OC[C@@]56CCCN5C[C@H](F)C6)nc4c3F)c12` (some centres unmarked) [Example 43]: the half-maximal inhibitory concentration (IC50) in assay [1] worked out at 8 nM; in assay [2], 12 nM.

Consider `CCc1c(F)ccc2cc(O)cc(-c3ncc4c(N5CCOCC6(COC6)C5)nc(OCC56CCCN5C[C@H](F)C6)nc4c3F)c12` (stereo in doubt) [Example 50, 5-Ethyl-6-fluoro-4-(8-fluoro-2-(((2R,7aS)-2-fluorotetrahydro-1H-pyrrolizin-7a(5H)-yl)methoxy)-4-(2,6-dioxa-9-azaspiro[3.6]decan-9-yl)pyrido[4,3-d]pyrimidin-7-yl)naphthalen-2-ol], for which the IC50 is 50 nM in assay [1] and 56 nM in assay [2].

Turning to `CCc1c(F)ccc2cc(O)cc(-c3ncc4c(N5CCCC6(CNC6=O)C5)nc(OC[C@@]56CCCN5C[C@H](F)C6)nc4c3F)c12` (single isomer, unassigned) [Example 46], the values for the 50% inhibitory concentration (IC50) in assay [1] and in assay [2] were 65 nM and 59 nM, respectively.

`CCc1c(F)ccc2cc(O)cc(-c3ncc4c(N5CCCC6(CCN6)C5)nc(OC[C@@]56CCCN5C[C@H](F)C6)nc4c3F)c12` (stereo partly drawn) [Example 5, 5-Ethyl-6-fluoro-4-(8-fluoro-2-(((2R,7aS)-2-fluorotetrahydro-1H-pyrrolizin-7a(5H)-yl)methoxy)-4-(1,6-diazaspiro[3.5]nonan-6-yl)pyrido[4,3-d]pyrimidin-7-yl)naphthalen-2-ol]: the IC50 in assay [1] stood at 17 nM; in assay [2] it was 40 nM.

As for `CCc1c(F)ccc2cc(O)cc(-c3ncc4c(N5CCOC6(CCC6)C5)nc(OC[C@@]56CCCN5C[C@H](F)C6)nc4c3F)c12` [Example 31, 5-Ethyl-6-fluoro-4-(8-fluoro-2-(((2R,7aS)-2-fluorotetrahydro-1H-pyrrolizin-7a(5H)-yl)methoxy)-4-(5-oxa-8-azaspiro[3.5]nonan-8-yl)pyrido[4,3-d]pyrimidin-7-yl)naphthalen-2-ol], the values for the IC50 in assay [1] and in assay [2] were 28 nM and 27 nM, respectively.
